Assay results reported in EP2348142B1, “Method and composition for removing scale deposits formed on a metal surface within a steam generating system” (Westinghouse Electric Company LLC, priority 2010, dated 2011).
Like-named read-outs stand apart in the source and are kept apart here.

Key:
[1] = Dissolution of boehmite (Example 5); settings: 0.03 g boehmite alone
[2] = Coupon corrosion test with pre-heated TMAH solutions (Example 9); settings: 5 wt% TMAH + 1 wt% EDTA
Description: In order to determine the effect of possible thermal degradation of TMAH on its corrosivity towards steel, C1018 carbon steel coupons were tested in three solutions of 5 wt% TMAH + 1 wt% EDTA. […] One of these solutions was not pre-exposed to elevated temperatures. The second solution was exposed to a temperature of 130 ±10 °C for two days before being used in the test. During pre-heating period, the 20-mL Parr bomb in which the solution was heated was almost full, leaving very little vapor space above the solution. The third solution was similarly pre-heated at 130 ±10 °C for two days, but the Parr bomb was only half-full, holding 10 mL of solution and 10 mL of air. The three TMAH solutions were later used in testing of 1018 carbon steel coupons in 40 mL of testing solution for 1 week.

[3] = Example 1; both stages; covers B+S and B+S+M
Description: An example embodiment of the present invention was evaluated in laboratory testing using mixtures of 0.06 g of boehmite and 0.06 g of silica sand (B+S) or of 0.06 g of boehmite, 0.06 g of silica sand, and 0.68 g of magnetite (B+S+M). These mixtures were heated at 80 °C for 1 day, with 40 mL volumes of a solution of 381 ppm (0.0381%) of TMAH in de-ionized water, adjusted with boric acid to a room-temperature pH of 11.0.
At the end of 1 day, the solutions were removed for analysis of dissolved Al, Si, and Fe, and the experiment on the residual solids was continued for an additional 2-day interval using fresh volumes of the original solutions. In addition to the fractions of each oxide dissolved during the experiment, the mole ratios of metals dissolved to base (TMAH or DMA) introduced were also calculated.

[4] = Example 2; for ratio of dissolved metals (Al, Si and Fe) to base: unadjusted solutions, both stages
Description: Other example embodiments of the present invention were evaluated in laboratory testing using mixtures of 0.02 g of boehmite and 0.02 g of silica sand (B+S), and 0.23 g of magnetite (B+S+M). These mixtures were heated at 80 °C for 1 day, with 40 mL volumes of solutions of 1500 ppm (0.15%) of TMAH in de-ionized water, without pH adjustment, adjusted with boric acid to a room-temperature pH of 11.0, or adjusted with boric acid to a room-temperature pH of 9.0.
All the solutions were sparged with nitrogen for 15 minutes at the beginning of each experiment.
After one day (∼ 24 hours), the solutions were removed for analysis of dissolved Al, Si, and Fe. The experiment on the residual solids was continued for an additional 2-day interval using fresh volumes of the original solutions. In addition to the fractions of each oxide dissolved during the experiment, the mole ratios of metals dissolved to base (TMAH or DMA) introduced were also calculated.

[5] = Example 3; both stages; covers B+S and B+S+M
Description: Another example embodiment of the present invention was evaluated in laboratory testing using mixtures of 0.06 g of boehmite and 0.06 g of silica sand (B+S) or of 0.06 g of boehmite, 0.06 g of silica sand, and 0.68 g of magnetite (B+S+M). These mixtures were heated at 80 °C for 1 day with 40 mL volumes of a solution of 46 ppm (0.0046%) of TMAH in de-ionized water, having a room-temperature pH of 10.8.
At the end of 1 day, the solutions were removed and analyzed for dissolved Al, Si, and Fe. The experiment on the residual solids was continued for an additional 2-day interval using fresh volumes of the original solutions. In addition to the fraction of each oxide dissolved during the experiment, the mole ratios of metals dissolved to base (TMAH or DMA) introduced were also calculated.

[6] = Example 4; covers B+S and B+S+M
Description: Another example embodiment of the present invention was evaluated in laboratory testing using mixtures of 0.06 g of boehmite and 0.06 g of silica sand (B+S) or of 0.06 g of boehmite, 0.06 g of silica sand, and 0.68 g of magnetite (B+S+M). These mixtures were heated at 80 °C for 1 day, with 40 mL volumes of a combined solution of 50.8 g/L (5.08%) of TMAH and 10 g•L^-1 (1%) of ethylenediaminetetra-acetic acid (EDTA) in de-ionized water.
At the end of 1 day, the solutions were removed for analysis of dissolved Al, Si, and Fe. In addition to fractions of each oxide dissolved during the experiment, the mole ratios of the amount of metals dissolved to base (TMAH or DMA) introduced were also calculated.

[7] = Example 11; base raised from 0.15-0.2 wt% to 5 wt%; covers both solids
Description: In order to verify this assumption, solutions of TMAH were compared with those of the similarly strong base choline hydroxide (CholOH). Mixtures of 0.06 g sand + 0.06 g boehmite or 0.06 g sand + 0.06 g boehmite + 0.68 g magnetite were exposed to volumes of 40 mL of several solutions of TMAH or CholOH for 48 hours at a temperature of 80 °C. Each experiment was carried out in duplicate. The spent test solutions were analyzed to determine the concentrations of dissolved Si, Al, and Fe and the percentage of each of the corresponding oxides in the test solutions was calculated.

[8] = cited from earlier work
[9] = at 25 °C; cited from earlier work

| Structure (SMILES) | ratio of dissolved Al to base [3] | ratio of dissolved metals (Al, Si and Fe) to base [4] | ratio of dissolved Al to base [5] | ratio of total dissolved metal (predominantly dissolved Al) to introduced base [6] | extent of dissolution of boehmite increased by a factor [7] | pH [9] | also measured |
| --- | --- | --- | --- | --- | --- | --- | --- |
| C[N+](C)(C)C.[OH-] [TMAH, Tetramethylammonium hydroxide] | 0.24-0.29 | 0.09-0.10 | 0.05-0.27 | 0.15-0.16 | approximately 1.7 | – | dissolution of Al higher by a factor, versus DMA solution [1]: 13; pH of the solution ([2]; after pre-heating in the absence of air): approximately 13.4; pH of the solution ([2]; before pre-heating): approximately 13.0; mole ratios higher by factors, TMAH versus DMA ([4]; pH adjusted solutions): 2-8; more effective than DMA by a factor (mole ratio calculations) [6]: 4-7; thermally stable in aqueous solutions up to [8]: 130-135 °C |
| C[N+](C)(C)CCO.[OH-] [CholOH, choline hydroxide] | – | – | – | – | approximately 1.7 | – | – |
| CNC [DMA, dimethylamine, reference compound] | 0.06-0.07 | 0.03-0.06 | 0.04-0.10 | 0.02-0.04 | – | – | pKa [9]: about 10.61 |
| C1=NCCCN2CCCCC12 (stereo not shown) [1,5-diazabicyclo(5,4,0)undec-5-ene] | – | – | – | – | – | 13.40 | – |
| CCCCN [mono-N-butylamine] | – | – | – | – | – | 10.61 | – |
